# Reference: paper PMC8881077 (Journal of Enzyme Inhibition and Medicinal Chemistry, 2022)
# Read-outs that look alike come from different tables or passages of the source.
# How the values were obtained:
# PC12 cells [1] = assay: Neuroprotective effect on H2O2-induced PC12 cells injury, MTT assay; format: cell-based; settings: 100 μM H2O2, PC12 cells
# [2] = system: NO production in LPS-induced BV-2 cells; assay: NO production in BV-2 cells, Griess reaction; format: cell-based; settings: for release volume of NO in BV-2 cells without LPS: 3 μM and 9 μM
# Protocol: (§1) Compounds 5f and 7k were selected to test the anti-inflammatory potency by measuring the production of inflammatory mediators TNF-α and NO in LPS-induced BV-2 cells[32]^,[33]. • Cytotoxicity of compounds 5f and 7k on BV-2 cells. Firstly, the cytotoxicity of compounds 5f and 7k were tested using an MTT assay. […] In inhibition of LPS-induced, NO production was tested through the Griess reaction method. […] In addition, to further investigate the effects of compounds 5f and 7k on LPS-induced TNF-α production in BV-2 cells, the enzyme-linked immunosorbent assay (ELISA) was used.
# Griess reagent system was used to evaluate the inhibition of LPS-induced NO production. The methods of culturing BV-2 cells, setting blank control and adding tested compounds 5f or 7k (1 μM, 3 μM and 9 μM) and LPS were the same as those in the cytotoxicity assay. After that, the cell culture supernatants and different concentrations of NaNO2 as a standard were added to a 96-well plate since the NaNO2 concentration in the supernatant could act as an indicator of NO production. Then, to each well was added the same volume of Griess reagent and incubated at room temperature for 10 min. Finally, the absorbance was monitored at 540 nm using an ELISA plate reader to measure the results of NO production.
# [3] = Metal-chelating property, UV-visual spectrometry; format: physicochemical; settings: for molar ratio at intersection: complex with Cu^2+; for maximum absorption wavelength after adding AlCl3: compound and AlCl3 37.5 μM in methanol; for maximum absorption wavelength after adding CuCl2: compound and CuCl2 37.5 μM in methanol; for maximum absorption after adding FeSO4: compound and FeSO4 37.5 μM in methanol; for maximum absorption after adding ZnCl2: compound and ZnCl2 37.5 μM in methanol
# Protocol: The chelating property of compounds 5f and 7k were determined by UV-visual spectrometry and biometals such as Cu^2+, Zn^2+, Al^3+ and Fe^2+ were applied[19]^,[20]. […] The stoichiometry of the 5f-Cu^2+ complex was determined using the molar ratio method by preparing solutions of compound 5f with increasing amounts of CuCl2 at 386 nm.
# Further, the stoichiometry of the 7k-Cu^2+ complex was determined using the molar ratio method at 385 nm.
# The metal chelation property was investigated by UV absorption in a Shimadzu UV-2450 spectrophotometer. The detailed procedure referenced our previous work[20]^,[22].
# huBuChE = biological target: T1, huBuChE (Homo sapiens, UniProt P06276); assay: biochemical; format: biochemical; settings: from human serum; read-out: IC50 ± SD huBuChE
# T1 construct: BuChE from rat serum or human serum (Sigma Co.); purchased Sigma Co; host or cells: human serum
# Protocol: (§2) The AChE and BuChE inhibitory activities of the synthesised compounds were evaluated using the Ellman assay with slight modification. AChE from 5% rat cortex homogenate or human erythrocytes (Sigma Co.). BuChE from rat serum or human serum (Sigma Co.).
# huAChE [4] = biological target: T2, huAChE (Homo sapiens, UniProt P22303); format: biochemical; design: AChE from human erythrocytes (Sigma Co.); purchased Sigma Co; host or cells: human erythrocytes; settings: for huAChE activity restored: 0.1 × IC50, at 60 min, Figure 2B; for huAChE activity increase when diluted to 0.1 × IC50: Figure 2A, dilution to 0.1 × IC50
# Protocol: In order to further explore the reversibility of inhibition, the recovery of huAChE inhibitors inhibition after dilution was carried out with time monitoring.
# Data were expressed as the mean ± SEM by three independent experiments.
# ratBuChE = biological target: T3, ratBuChE (Rattus norvegicus, UniProt Q9JKC1); assay: ratBuChE inhibition, modified Ellman's method; format: biochemical
# T3 construct: BuChE from rat serum or human serum (Sigma Co.); from tissue; host or cells: rat serum
# Protocol: as §2
# Aβ1–42 = Aβ1–42 (Homo sapiens, UniProt P05067); assay: Self-induced Aβ1–42 aggregation, Thioflavin T fluorescence; format: biochemical; settings: tested compounds and Aβ1–42 25 μM
# From the text: The Thioflavin T-based flurometric assay was employed to test the inhibition potency on self-induced/Cu^2+-induced Aβ1-42 aggregation.
# [5] = system: TNF-α production in LPS-induced BV-2 cells; assay: TNF-α production in BV-2 cells, ELISA; format: cell-based; settings: 1.0 μg/mL LPS
# Protocol: as §1
# Inhibition of LPS-induced TNF-α production was evaluated with an enzyme-linked immunosorbent assay (ELISA). The methods of BV-2 cells culture, adding different concentrations of tested compounds 5f or 7k (1 μM, 3 μM and 9 μM) (10 μL) and LPS (1.0 μg/mL, 10 μL) and setting blank control group were the same as above in cytotoxicity assay. Then, the supernatant of the cell culture solution (50 μL) was added to a 96-well plate and the release of cytokine TNF-α was measured by ELISA according to the instructions of the ELISA kit.
# ratAChE = biological target: T4, ratAChE (Rattus norvegicus, UniProt P37136); assay: biochemical; settings: for SI: Selectivity Index = IC50 (BuChE)/IC50 (AChE), rat enzymes; for IC50: from 5% rat cortex homogenate, read-out: IC50 ± SD ratAChE
# T4 construct: AChE from 5% rat cortex homogenate or human erythrocytes (Sigma Co.); from tissue; host or cells: 5% rat cortex homogenate
# T4 sequence (P37136 32-614): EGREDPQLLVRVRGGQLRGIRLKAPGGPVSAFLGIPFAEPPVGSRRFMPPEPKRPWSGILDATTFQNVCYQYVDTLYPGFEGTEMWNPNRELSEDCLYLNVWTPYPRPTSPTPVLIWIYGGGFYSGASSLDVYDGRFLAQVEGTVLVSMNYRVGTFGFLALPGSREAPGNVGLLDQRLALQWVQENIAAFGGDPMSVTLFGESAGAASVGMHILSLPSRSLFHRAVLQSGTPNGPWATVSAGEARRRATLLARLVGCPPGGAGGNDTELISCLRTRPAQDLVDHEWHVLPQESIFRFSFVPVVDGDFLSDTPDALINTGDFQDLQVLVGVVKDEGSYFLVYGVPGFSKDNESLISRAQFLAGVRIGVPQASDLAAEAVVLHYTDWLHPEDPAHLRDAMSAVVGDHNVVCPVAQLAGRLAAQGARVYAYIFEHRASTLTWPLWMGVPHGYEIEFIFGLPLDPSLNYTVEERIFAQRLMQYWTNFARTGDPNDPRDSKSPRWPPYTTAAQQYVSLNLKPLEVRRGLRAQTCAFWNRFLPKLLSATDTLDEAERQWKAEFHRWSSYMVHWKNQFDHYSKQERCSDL
# Protocol: as §2
# huAChE [6] = biological target: T2, huAChE; assay: biochemical; format: biochemical; design: AChE from 5% rat cortex homogenate or human erythrocytes (Sigma Co.); purchased Sigma Co; host or cells: human erythrocytes; settings: for SI: Selectivity Index = IC50 (BuChE)/IC50 (AChE), human enzymes; for IC50: from human erythrocytes, read-out: IC50 ± SD huAChE
# Protocol: as §2
# PC12 cells [7] = assay: Cytotoxicity on PC12 cells, MTT assay; format: cell-based; settings: 40 μM
# T2 sequence (P22303 32-617 isoform P22303-2 limits assumed): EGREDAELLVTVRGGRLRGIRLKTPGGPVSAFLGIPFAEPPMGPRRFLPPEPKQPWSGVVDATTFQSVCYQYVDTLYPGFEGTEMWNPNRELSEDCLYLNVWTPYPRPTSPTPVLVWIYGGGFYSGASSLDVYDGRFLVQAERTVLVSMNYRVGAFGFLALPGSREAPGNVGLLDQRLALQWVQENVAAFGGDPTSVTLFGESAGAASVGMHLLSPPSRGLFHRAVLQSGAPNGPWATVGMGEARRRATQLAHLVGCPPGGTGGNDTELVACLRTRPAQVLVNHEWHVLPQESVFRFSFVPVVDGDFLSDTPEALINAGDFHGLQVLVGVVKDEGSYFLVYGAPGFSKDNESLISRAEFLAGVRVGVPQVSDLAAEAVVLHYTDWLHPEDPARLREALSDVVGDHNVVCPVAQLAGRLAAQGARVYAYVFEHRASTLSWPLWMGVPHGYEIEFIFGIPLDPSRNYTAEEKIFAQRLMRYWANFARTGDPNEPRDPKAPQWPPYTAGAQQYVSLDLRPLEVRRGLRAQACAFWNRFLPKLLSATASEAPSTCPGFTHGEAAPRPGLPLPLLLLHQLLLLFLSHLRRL
# T3 sequence (Q9JKC1 24-597): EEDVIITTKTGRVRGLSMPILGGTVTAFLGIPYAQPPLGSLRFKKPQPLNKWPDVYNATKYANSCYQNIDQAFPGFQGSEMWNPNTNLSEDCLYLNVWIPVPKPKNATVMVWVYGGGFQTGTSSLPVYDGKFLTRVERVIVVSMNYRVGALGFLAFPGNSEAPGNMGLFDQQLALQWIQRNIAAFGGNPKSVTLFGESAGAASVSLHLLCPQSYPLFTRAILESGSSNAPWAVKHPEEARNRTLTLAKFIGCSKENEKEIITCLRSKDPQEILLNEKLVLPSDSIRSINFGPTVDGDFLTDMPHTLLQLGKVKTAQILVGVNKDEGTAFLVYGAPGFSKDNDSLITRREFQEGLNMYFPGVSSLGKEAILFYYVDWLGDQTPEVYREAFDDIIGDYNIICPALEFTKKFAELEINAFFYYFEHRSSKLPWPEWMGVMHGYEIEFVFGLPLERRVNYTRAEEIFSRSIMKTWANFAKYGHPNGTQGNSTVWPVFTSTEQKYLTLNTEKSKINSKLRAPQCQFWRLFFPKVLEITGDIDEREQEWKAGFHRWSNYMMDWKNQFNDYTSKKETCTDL
# T1 sequence (P06276 29-602): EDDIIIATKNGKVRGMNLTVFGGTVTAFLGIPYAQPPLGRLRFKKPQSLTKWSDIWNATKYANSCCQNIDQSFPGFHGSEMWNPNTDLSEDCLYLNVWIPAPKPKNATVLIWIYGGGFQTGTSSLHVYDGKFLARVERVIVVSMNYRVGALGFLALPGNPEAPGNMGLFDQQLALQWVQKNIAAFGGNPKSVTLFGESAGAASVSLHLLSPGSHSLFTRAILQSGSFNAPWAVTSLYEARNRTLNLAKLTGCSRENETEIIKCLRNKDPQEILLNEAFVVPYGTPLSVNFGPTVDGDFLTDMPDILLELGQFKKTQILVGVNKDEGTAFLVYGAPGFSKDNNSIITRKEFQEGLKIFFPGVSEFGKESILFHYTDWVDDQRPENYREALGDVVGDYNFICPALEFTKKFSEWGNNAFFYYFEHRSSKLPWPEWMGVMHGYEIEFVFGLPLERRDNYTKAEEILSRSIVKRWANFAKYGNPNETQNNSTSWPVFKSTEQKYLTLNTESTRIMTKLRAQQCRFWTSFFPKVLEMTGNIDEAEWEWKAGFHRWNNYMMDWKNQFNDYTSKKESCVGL
# Sequence of Aβ1–42 (P05067 672-713): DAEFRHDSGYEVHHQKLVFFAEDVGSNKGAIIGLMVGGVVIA
molecule,measurement,setting,value
"CCN(CCCCCOc1cc(O)c2c(c1)OC(c1ccc(O)cc1)CC2=O)Cc1ccccc1 (stereo not shown) [Compound 5f, 7-((5-(benzyl(ethyl)amino)pentyl)oxy)-5-hydroxy-2–(4-hydroxyphenyl)chroman-4-one]",viability at 2.5 µM,"PC12 cells [1]; Rattus norvegicus, PC-12, compound 2.5 μM, read-out: cell viability",62.9%
same,viability at 5 µM,"PC12 cells [1]; Rattus norvegicus, PC-12, compound 5.0 μM, read-out: cell viability",68.2%
same,viability at 10 µM,"PC12 cells [1]; Rattus norvegicus, PC-12, compound 10.0 μM, read-out: cell viability",73.4%
same,release volume of NO in BV-2 cells without LPS,[2]; 1 μM,did not produce significant change
same,inhibition at 1 µM,"[2]; Mus musculus, BV-2, 1 μM, 1 μg/mL LPS, read-out: inhibition rate of LPS-induced NO production",37.6%
same,inhibition at 3 µM,"[2]; Mus musculus, BV-2, 3 μM, 1 μg/mL LPS, read-out: inhibition rate of LPS-induced NO production",52.1%
same,inhibition at 9 µM,"[2]; Mus musculus, BV-2, 9 μM, 1 μg/mL LPS, read-out: inhibition rate of LPS-induced NO production",63.8%
same,molar ratio at intersection,[3],1.1
same,maximum absorption wavelength after adding AlCl3,[3],388 nm
same,maximum absorption wavelength after adding CuCl2,[3],386 nm
same,maximum absorption after adding FeSO4,[3],did not present obvious shift
same,maximum absorption after adding ZnCl2,[3],did not present obvious shift
same,IC50,huBuChE,6.3 ± 0.74 µM
same,reversibility of huAChE inhibition,huAChE [4],reversible
same,huAChE activity (% control),"huAChE [4]; 0.1*IC50, diluted",55.6 % control
same,huAChE activity restored,huAChE [4],89.8%
same,huAChE activity (% control),"huAChE [4]; 1*IC50, diluted",48.7 % control
same,huAChE activity (% control),"huAChE [4]; 1*IC50, undiluted",47.9 % control
same,huAChE activity increase when diluted to 0.1 × IC50,huAChE [4],6.9%
same,IC50,ratBuChE,16.9 ± 0.27 µM
same,inhibition at 25 µM,Aβ1–42,62.1 ± 0.38%
same,TNF-α production,[5]; 1 μM,1130 pg/mL
same,TNF-α production,[5]; 3 μM,728 pg/mL
same,TNF-α production,[5]; 9 μM,394 pg/mL
same,inhibition at 1 µM,"[5]; Mus musculus, BV-2, 1 μM, read-out: inhibitory rate of TNF-α production",33.5%
same,inhibition at 3 µM,"[5]; Mus musculus, BV-2, 3 μM, read-out: inhibitory rate of TNF-α production",57.2%
same,inhibition at 9 µM,"[5]; Mus musculus, BV-2, 9 μM, read-out: inhibitory rate of TNF-α production",76.8%
same,SI,ratAChE,9.9
same,IC50,ratAChE,1.7 ± 0.08 µM
same,SI,huAChE [6],6.9
same,IC50,huAChE [6],0.91 ± 0.02 µM
same,cytotoxicity on PC12 cells,PC12 cells [7],did not show any cytotoxicity
7-((6-(benzyl(ethyl)amino)hexyl)oxy)-2–(4-((6-(benzyl(ethyl)amino)hexyl)oxy)phenyl)-5-hydroxychroman-4-one [Compound 7k],cell viability,PC12 cells [1]; compound 2.5 μM,58.3%
same,cell viability,PC12 cells [1]; compound 5.0 μM,63.7%
same,cell viability,PC12 cells [1]; compound 10.0 μM,69.8%
same,inhibition rate of LPS-induced NO production,"[2]; 1 μM, 1 μg/mL LPS",26.7%
same,release volume of NO in BV-2 cells without LPS,[2]; 1 μM,did not produce significant change
same,inhibition rate of LPS-induced NO production,"[2]; 3 μM, 1 μg/mL LPS",36.2%
same,inhibition rate of LPS-induced NO production,"[2]; 9 μM, 1 μg/mL LPS",48.5%
same,molar ratio at intersection,[3],1.1
same,maximum absorption wavelength after adding AlCl3,[3],did not show an obvious change
same,maximum absorption wavelength after adding CuCl2,[3],385 nm
same,maximum absorption after adding FeSO4,[3],did not show an obvious change
same,maximum absorption after adding ZnCl2,[3],did not show an obvious change
same,IC50,huBuChE,8.2 ± 0.37 µM
same,reversibility of huAChE inhibition,huAChE [4],reversible
same,huAChE activity (% control),"huAChE [4]; 0.1*IC50, diluted",61.2 % control
same,huAChE activity restored,huAChE [4],96.8%
same,huAChE activity (% control),"huAChE [4]; 1*IC50, diluted",53.4 % control
same,huAChE activity (% control),"huAChE [4]; 1*IC50, undiluted",52.6 % control
same,huAChE activity increase when diluted to 0.1 × IC50,huAChE [4],7.8%
same,IC50,"ratBuChE; BuChE from rat serum, read-out: IC50 ± SD ratBChE",14.8 ± 0.36 µM
same,"Inhibition of Aβ1–42 aggregation, Self-induced (%)",Aβ1–42,43.8 ± 0.51%
same,TNF-α production,[5]; 1 μM,1295 pg/mL
same,inhibitory rate of TNF-α production,[5]; 1 μM,23.8%
same,TNF-α production,[5]; 3 μM,915 pg/mL
same,inhibitory rate of TNF-α production,[5]; 3 μM,46.2%
same,TNF-α production,[5]; 9 μM,553 pg/mL
same,inhibitory rate of TNF-α production,[5]; 9 μM,67.5%
same,SI,ratAChE,18.7
same,IC50,ratAChE,0.79 ± 0.06 µM
same,SI,huAChE [6],14.4
same,IC50,huAChE [6],0.57 ± 0.02 µM
same,cytotoxicity on PC12 cells,PC12 cells [7],did not show any cytotoxicity
